The text below walks through data of patent US20200291082A1, “PREVENTION AND TREATMENT OF GRAFT-VERSUS-HOST-DISEASE WITH DEFENSINS” (priority 2017, published 2020).

Entries after “also recorded” stand apart in the source; their conditions may differ. No end group written: not given here.

Data set [1] has as its system Dextran Sodium Sulphate induced colitis. The experiment in a line: prophylactic murine 10-day oral Dextran Sodium Sulphate induced colitis model, s.c. and i.v. hBD2 versus i.p. mouse anti TNF-α (Example 1). In kind it is in vivo, C57BL/6 mice. To be noted: for histological score of distal colon: FIG. 9; for disease activity index (DAI): 10 days. How it is done: Anti-inflammatory effect of s.c. and i.v. administration of hBD2 versus intraperitoneal mouse anti TNF-α in a prophylactic, murine, 10-day, oral Dextran Sodium Sulphate induced colitis model.
70 male C57BL/6 mice housed in groups of five per cage were allocated to 7 different treatment groups. All animals had their drinking water supplemented with DSS 2% for 7 days to induce colitis resulting in significant inflammation and injury of the colonic tissue. The animals were treated with hBD2 dosed intravenously in the tail vein or subcutaneously under the dorsal skin, with mouse anti TNF-α intraperitoneally or PBS as vehicle for 10 days.
A disease activity index (DAI) scoring system was applied for clinical assessment (FIG. 7). The animals were sacrificed on day 10 and colon removed for histological assessment employing a histological scoring system (FIG. 8).

Data set [2] has the same test system. Kind of data set: prophylactic murine 7-day Dextran Sodium Sulphate induced colitis model, oral and s.c. hBD2 versus oral cyclosporine (Example 4). Type of data set: in vivo, C57BL/6 mice. The source says: Anti-inflammatory effect of oral and s.c. administration of hBD2 versus oral cyclosporine in a prophylactic, murine, 7-day, Dextran Sodium Sulphate induced colitis model.
80 male C57BL/6 mice housed in groups of five per cage were allocated to 7 different treatment groups. All animals had their drinking water supplemented with DSS 3% for 7 days to induce colitis characterized by epithelial damage, disruption of crypt architecture and a moderate inflammation characterized by accumulation of mononuclears and neutrophils in mucosa and submucosa. The animals were treated with oral hBD2 dosed at 0.6 mg/kg BID or 0.4 mg/kg TID; hBD2 dosed s.c. at 0.15 mg/kg BID or 0.1 mg/kg TID; or cyclosporine 50 mg/kg OD or water for 7 days.
Clinical assessment was conducted as per a scoring system (0=no blood in stool; 1=evidence of blood in stool and 2=severe bleeding). The animals were sacrificed on day 7 and colon removed for histological assessment.

Data set [3] relates to house dust mite model of allergic asthma. Kind of data set: therapeutic intranasal versus oral hBD2 in murine house dust mite model of allergic asthma, lung histopathology and cytokines (Example 11). In kind it is in vivo, BALB/c mice. How it is done: To determine and assess the efficacy of IN versus oral therapeutic intervention with administration of defensins in a murine house dust mite model of allergic asthma.
Treatment regime: Female 7-10 weeks old BALB/c mice randomly allocated into 4 study groups one day prior to study start were subcutaneously (SC) sensitized to house dust mite (100 μg HDM in 200 μL saline plus Freund's complete adjuvant in 0.9% saline). Mice were intranasally (IN) challenged with HDM on day 14 (HDM 25 μg in 50 μL of saline). hBD2 was administered IN or orally (0.4 mg/kg TID IN; 0.4 mg/kg TID orally, 50 μL phosphate buffered saline) on day 14. The initial dose was administered 60 minutes prior to challenge, and the subsequent doses approximately 6 hours apart.
Lung tissue sampling: Lungs were removed from the thorax, snap frozen in liquid nitrogen and stored frozen at −80 degrees Celsius until analysis of cytokine concentration of IL-4, IL-5, IL-8 (KC), IL-9 and IL-13 in lung homogenate by ELISA. Lungs were inflated in situ in 10% buffered formalin, removed from thorax, placed individually in 10% buffered formalin, paraffin embedded in toto, sectioned and H&E/PAS stained.
Blood sampling: All terminal blood samples were collected via jugular vein bleeds. Blood was sampled to Li-heparin tubes, put on ice and immediately centrifuged at 4° C. Plasma was separated and stored at -80° C. until the potential SCFA analysis. Lung tissue sampling: The lungs were exposed and excised by gently opening the thorax and by cutting down either side of the sternum and ribs and trimming back. Lungs from the first 6 animals per group were removed from thorax, snap frozen in liquid nitrogen and stored frozen at −80° C. until analysis of cytokine concentration by ELISA.
Lungs from the other 8 animals per group were inflated in situ with 10% buffered formalin, removed from thorax, placed individually in 10% buffered formalin, paraffin embedded in toto, sectioned and H&E/PAS stained. The paraffin blocks were retained for the IHC analysis.
Read-Outs • Histopathology (H&E; PAS) (N=8/group; total N=32) • Cytokines in lung tissue homogenates (IL-4, IL-5, IL-8 (KC), IL-9 and IL-13) (N=6/group; total N=24)
Cellular influx (mononuclears, eosinophils, neutrophils) was assessed semi-quantitatively on H&E stained slides separately for peri-bronchial/bronchiolar and perivascular space as follows: • 0 absent • 1 few scattered inflammatory cells • 2 larger aggregates • 3 marked accumulation of cells
Overall score for inflammation was calculated as the sum of all individual scores.

The subject of data set [4] is acute graft versus host disease following stem cell transplantation. The experiment in a line: prophylactic oral hBD-2 versus cyclosporine in murine model of acute graft versus host disease (Example 14). Type of data set: in vivo, BALB/c mice. On the procedure:
To determine and assess the efficacy of prophylactic treatment with oral hBD-2 versus cyclosporine in a murine model of acute graft versus host disease following stem cell transplantation.
Treatment regime: 20 female BALB/c mice were irradiated with 4.5 Gy (2×498 sec) at intervals of at least 4 hours on day 0. Bone marrow was harvested: hind limbs harvested from 2 female WT C57BL/6 mice aseptically. Skeletal muscle was removed and epiphysis cut away. Lumen of bone flushed with PBS and cells pelleted and taken up. Harvest of T-cells: spleens from 2 female WT C57BL/6 mice were meshed through a […] cell strainer into a PBS filled dish. Cells were taken up in PBS and transferred into a 50 mL falcon tube and spun down. Cells were taken up in 1 mL PBS and 20 μL of CD4 microbead+20 μL CD8 microbeads per spleen added for incubation for 20 min at 4 degrees C. Cells were washed with PBS and applied to MACS separation in order to positively select CD4+ and CD8+ cells. Positively selected T-cells were counted and taken up. Transplantation: directly after the second irradiation, all WT BALB/c recipient mice were injected with 5×1.000.000 BM cells (50 μL) i.v. into the retroorbital venous plexus under isoflurane anesthesia. 20 BALB/c mice were treated with 1.2 mg of hBD2/kg BW/day (n=7); 50 mg cyclosporine/kg BW on days 0, 3, 6 and 9 (n=7) or 100 μL PBS per day vial oral gavage (n=6) from day 0-10.
The mice were weighed at regular intervals during the study and survival was monitored for 90 days.

The mark [5] stands for this setting: all four hBD2 dosing groups (oral 0.6 mg/kg BID, 0.4 mg/kg TID; s.c. 0.15 mg/kg BID, 0.1 mg/kg TID), cyclosporine 50 mg/kg OD, 7 days.

In the case of “human beta defensin 2 (GIGDPVTCLKSGAICHPVFCPRRYKQIGTCGLPGTKCCKKP; not fully specified (bridges); ends and bridges not checked; listed as Homo sapiens) [hBD2]”, the “histological score of distal colon” value in data set [1] (hBD2 0.1 mg/kg compared with mouse anti TNF-α) was “statistically significant superiority”. For the same substance, in data set [1] (subcutaneous compared with i.v. hBD2 administration), the “histological score of distal colon” value is recorded as “superiority over i.v. administration”. Moreover, in data set [1] (hBD2 intravenous administration), the “disease activity index (DAI)” value is reported as “significant reduction of DAI”. Further, the histology score result in data set [1] (hBD2 s.c. twice daily, colon day 10) is recorded as “highly statistical significant effect on histology score”. Moreover, the “disease activity index (DAI)” value in data set [1] (hBD2 subcutaneous route, once or twice daily) is recorded as “most significant effect”. Besides, in data set [2] (FIG. 15), the “clinical score, s.c. versus oral dosing” value is on record as “seemed more efficacious than oral dosing”. In addition, in data set [2] (setting [5]), the clinical scores entry is on record as “highly statistically significant improvement; also recorded: statistical significant effect of hBD2 on par with cyclosporine” and the “maintenance of colon length” value is reported as “highly statistically significant improvement; also recorded: statistical significant effect of hBD2 on par with cyclosporine”. Besides, in data set [2] (both administration routes), the “clinical score, TID versus BID dosing” value was “more efficacious than BID dosing; also recorded: superiority of TID dosing of hBD2 over BID dosing”. In data set [3] (IN administration), the “IL-9 level in lung tissue homogenates” value was “Significant effects” and the “IL-13 level in lung tissue homogenates” value is given as “Significant effects”. Besides, the “histological inflammation of lung tissue” value in data set [3] (hBD2 both oral and intranasal 0.4 mg/kg TID on day 14, versus HDM challenged vehicle) was “effectively inhibited the increase in histological inflammation of lung tissue”. Besides, in data set [3] (oral administration), the “IL-4 level in lung tissue homogenates” value is given as “Significant effects”, the “IL-9 level in lung tissue homogenates” value is given as “Significant effects” and the “IL-13 level in lung tissue homogenates” value is reported as “Significant effects”. The mortality entry in data set [4] (FIG. 56, 7 mice treated with oral hBD-2 for 10 days) is given as “statistically significant reduction of mortality”. Moreover, the “weight loss following bone marrow transplantation” value in data set [4] (compared with PBS treated mice) is recorded as “lost statistically significantly less weight”. In addition, the “treated animals that had died by day 90” value in data set [4] (oral hBD-2 1.2 mg/kg/day day 0-10 (n=7), cyclosporine 50 mg/kg on days 0, 3, 6 and 9 (n=7), all but one of PBS mice (n=6) died) is 1.
